Experiments:
[1] = system: costovertebral organ of hamsters; assay: In vivo study with costovertebral organ of hamsters (male, castrated, testosterone propionate-treated, topical test product); parameters: species or system Male golden hamsters; details: for Control Gland in mg / Treated Gland in mg: Table II, 8 days; for Control Gland in mg: left costovertebral organ (ethanol only), testosterone propionate s.c. alone or + product B 1 mg/day; for Treated Gland in mg: testosterone propionate s.c. alone or + product B 1 mg/day topical
Experimental: (§1) B. In vivo study with costovertebral organ of hamsters
(§2) Male golden hamsters weighing 100 to 110 g castrated 7 days earlier received a subcutaneous injection of 125 μg per day and per animal of testosterone propionate in 0.2 ml of a sesame oil solution containing 0.5% of benzyl alcohol. One group of animals received also a treatment by topical application of an ethanol solution of the test compound on the right costovertebral organ and the left costovertebral organ received only ethanol. The treatment lasted for 8 days and 24 hours after the last, the costovertebral organs and the prostate were removed and weighed.

prostate = assay: In vivo study with hamsters: prostate weight (male, castrated, testosterone propionate-treated, topical test product); parameters: species or system Male golden hamsters; details: for Prostate in mg: Table II, testosterone propionate s.c. alone or + product B 1 mg/day topical, 8 days
Experimental: as §1, §2

male mice = assay: Acute toxicity in male mice; format: in vivo; details: 7th day
Experimental: Five male mice weighing 18 to 20 g received an intraperitoneal or oral administration of decreasing doses of product B in aqueous solution containing 0.25% of carboxymethyl cellulose and 0.2% of Tween at 1000, 600 or 400 mg/kg and the number of dead mice was determined on the 7th day. The DLo or the more elevated dose at which no mortality was observed was determined to be 400 mg/kg intraperitoneally and 1000 mg/kg orally for product B.

[2] = system: costovertebral organ of hamsters; assay: Costovertebral organ study repeated with female hamsters (antiandrogenic activity, topical); format: in vivo; details: for inhibition of the weight increase of the organ: right costovertebral organ, topical 5 mg/day
Experimental: as §2
The study was repeated with female hamsters to test the antiandrogenic activity of the compounds of Examples 7 and 13 at a dose of 5 mg/day and the results are reported in Table III.
The test was repeated on female hamsters to determine the antiandrogenic activity of the compounds of Examples 13 to 17 at 1 mg/day and the results are reported in Table IV.

[3] = Table III, testosterone propionate alone or + product 5 mg/day
[4] = Table III, testosterone propionate alone or + product 5 mg/day topical
[5] = Table IV, testosterone propionate alone or + product 1 mg/day
[6] = Table IV, testosterone propionate alone or + product 1 mg/day topical

SMILES: CCC1=C2CC[C@@]3(C)C(CC[C@@H]3O)C2CCC1=O (stereo partly drawn) [Product B, 3aβ-methyl-6-ethyl-1,2,3,3a,4,5,8,9,9a,9b-decahydro-7-H-benz(e)-inden-3β-ol-7-one]
- Control Gland in mg [1]: 41,8 ± 5,2 mg
- Treated Gland in mg ([1]; right costovertebral organ): 17,1 ± 2,2 mg
- antagonism of the effect of testosterone propionate on the untreated gland ([1]; left (untreated) gland, product applied locally to right costovertebral organ): did not antagonize the effect of testosterone propionate on the untreated gland
- inhibition in the weight increase of the organ ([1]; right costovertebral organ, male hamsters, topical 1 mg/day): 61%
- Prostate in mg (prostate): 80,1 ± 9,3 mg
- systemic effect (prostate; inferred from untreated gland and prostate after local application): does not have a systemic effect
- antagonism of the effect of testosterone propionate on the prostate (prostate; product applied locally to right costovertebral organ): did not antagonize the effect of testosterone propionate on the untreated gland or the prostate
- DLo (more elevated dose at which no mortality was observed) (male mice; intraperitoneal): 400 mg/kg
- DLo (more elevated dose at which no mortality was observed) (male mice; oral): 1000 mg/kg

SMILES: CCCC(=O)O[C@H]1CCC2C3CCC(=O)C(CC)=C3CC[C@@]21C (stereo partly shown) [Example 7, Butanoate of 3aβ-methyl-6-ethyl-7-oxo-1,2,3,3a,4,5,8,9,9a,9b-decahydro-1H-benz(e)-inden-3-yl]
- Control Gland in mg [2, 3]: 9,5 ± 0,8 mg
- Treated Gland in mg [2, 4]: 4,5 ± 0,4 mg
- inhibition of the weight increase of the organ [2]: 90%

SMILES: CCC1=C2CC[C@@]3(C)C(CC[C@@H]3OC(C)=O)C2CCC1=O (stereo partly drawn) [Example 13, 3β-acetoxy-3aβ-methyl-6-ethyl-1,2,3,3a,4,5,8,9,9a,9b-decahydro-7H-benz(e)-inden-7-one]
- Control Gland in mg [2, 3]: 10,8 ± 2,1 mg
- Treated Gland in mg [2, 4]: 3,9 ± 0,4 mg
- % inhibition of weight increase ([2]; Table IV, 1 mg/day topical): 61%
- Control Gland in mg [2, 5]: 9,9 ± 1,6 mg
- Treated Gland in mg [2, 6]: 6,0 ± 0,2 mg
- inhibition of the weight increase of the organ [2]: 95.6%

SMILES: CCC(=O)O[C@H]1CC[C@H]2[C@@H]3CCC4=CC(=O)CC[C@]4(C)[C@H]3CC[C@]12C [Testosterone Propionate, testosterone propionate, reference compound]
- Control Gland in mg [1]: 35,8 ± 5,0 mg
- Treated Gland in mg ([1]; right costovertebral organ): 33,91 ± 2,9 mg
- Prostate in mg (prostate): 79,5 ± 5,5 mg
- Control Gland in mg [2, 3]: 15,8 ± 1,0 mg
- Treated Gland in mg [2, 4]: 14,9 ± 1,1 mg
- Control Gland in mg [2, 5]: 11,0 ± 2,0 mg
- Treated Gland in mg [2, 6]: 10,2 ± 0,6 mg

Source: patent publication US4927975A, “Process for preparing certain decahydro-7H-3-ol-7-ones” (Roussel Uclaf, priority 1981, dated 1990)
